Results: PubChem BioAssay (NCI)
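A five-concentration, 48-hour dose response in 96-well plates underlies each endpoint, interpolated linearly between surrounding concentrations. GI50 = concentration required for 50% inhibition of growth. TGI: concentration producing complete growth inhibition.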

Key:
Experiment in all cases: NCI tumour cell line growth inhibition, 48 h
[1] = test system: SW-620 colon
[2] = test system: HCT-116 colon
[3] = test system: HCT-15 colon
[4] = test system: SF-539 CNS
[5] = test system: LOX IMVI melanoma
[6] = test system: SK-MEL-2 melanoma
[7] = test system: SK-OV-3 ovarian
[8] = test system: MDA-MB-468 breast
[9] = test system: HCC-2998 colon
[10] = test system: ACHN renal
[11] = test system: OVCAR-3 ovarian
[12] = test system: U251 CNS
[13] = test system: CCRF-CEM leukemia
[14] = test system: SNB-75 CNS
[15] = test system: RXF 393 renal
[16] = test system: OVCAR-4 ovarian
[17] = test system: SNB-19 CNS
[18] = test system: OVCAR-8 ovarian
[19] = test system: SF-295 CNS
[20] = test system: 786-0 renal
[21] = test system: HL-60(TB) leukemia
[22] = test system: EKVX NSCLC
[23] = test system: PC-3 prostate
[24] = test system: HOP-62 NSCLC
[25] = test system: UACC-62 melanoma
[26] = test system: SN12C renal
[27] = test system: MDA-MB-231 breast
[28] = test system: SK-MEL-5 melanoma
[29] = test system: K-562 leukemia
[30] = test system: NCI-H226 lung
[31] = test system: UO-31 renal
[32] = test system: SR leukemia
[33] = test system: NCI-H23 lung
[34] = test system: RPMI-8226 leukemia
[35] = test system: NCI-H460 lung
[36] = test system: M14 melanoma
[37] = test system: SK-MEL-28 melanoma
[38] = test system: UACC-257 melanoma
[39] = test system: MDA-MB-435
[40] = test system: COLO 205 colon
[41] = test system: MALME-3M melanoma
[42] = test system: A498 renal
[43] = test system: HS 578T breast
[44] = test system: HOP-92 NSCLC
[45] = test system: IGROV1 ovarian
[46] = test system: KM12 colon
[47] = test system: MCF7 breast
[48] = test system: A549 NSCLC
[49] = test system: HT29 colon
[50] = test system: T-47D breast
[51] = test system: DU-145 prostate
[52] = test system: NCI-H522 lung
[53] = test system: CAKI-1 renal
[54] = test system: MOLT-4 leukemia
[55] = test system: TK-10 renal
[56] = test system: OVCAR-5 ovarian
[57] = test system: BT-549 breast
[58] = test system: SF-268 CNS

For O=C(c1ccc(O)cc1)C1[C@H](c2ccc(Br)cc2)[C@@H](c2ccccc2)NC12C(=O)Nc1ccccc12 (stereo partly specified), which GI50 [1] is on record?
The GI50 was 6.63 µM.

What about the TGI [1] of the same compound?
Its TGI is 12.9 µM.

What about the GI50 [2] of the same compound?
Its GI50 is 5.51 µM.

And the TGI [2]?
The TGI was 10.8 µM.

And the GI50 [3]?
Its GI50 is 6.17 µM.

What about the TGI [3] of the same compound?
Its TGI is 13 µM.

And the GI50 [4]?
Its GI50 is 6.41 µM.

What about the TGI [4] of the same compound?
The TGI was 11.7 µM.

And the GI50 [5]?
The GI50 was 4.93 µM.

What about the TGI [5] of the same compound?
The TGI was 10.6 µM.

What about the GI50 [6] of the same compound?
Its GI50 is 6.14 µM.

And the TGI [6]?
Its TGI is 11.5 µM.

What about the GI50 [7] of the same compound?
The GI50 was 6.67 µM.

What about the TGI [7] of the same compound?
Its TGI is 13.3 µM.

And the GI50 [8]?
The GI50 was 6.1 µM.

And the TGI [8]?
Its TGI is 12.2 µM.

And the GI50 [9]?
Its GI50 is 5.87 µM.

And the TGI [9]?
Its TGI is 11.4 µM.

What about the GI50 [10] of the same compound?
The GI50 was 5.69 µM.

And the TGI [10]?
Its TGI is 10.8 µM.

What about the GI50 [11] of the same compound?
Its GI50 is 6.51 µM.

And the TGI [11]?
The TGI was 12 µM.

What about the GI50 [12] of the same compound?
The GI50 was 6.19 µM.

What about the TGI [12] of the same compound?
The TGI was 11.6 µM.

And the GI50 [13]?
The GI50 was 7.07 µM.

And the TGI [13]?
The TGI was 16.1 µM.

And the GI50 [14]?
Its GI50 is 4.21 µM.

What about the TGI [14] of the same compound?
Its TGI is 11.7 µM.

And the GI50 [15]?
The GI50 was 5.29 µM.

And the TGI [15]?
Its TGI is 10.5 µM.

And the GI50 [16]?
Its GI50 is 6.21 µM.

What about the TGI [16] of the same compound?
The TGI was 12.9 µM.

And the GI50 [17]?
The GI50 was 5.92 µM.

What about the TGI [17] of the same compound?
Its TGI is 11.1 µM.

And the GI50 [18]?
The GI50 was 6.28 µM.

And the TGI [18]?
Its TGI is 12.2 µM.

And the GI50 [19]?
The GI50 was 5.93 µM.

And the TGI [19]?
The TGI was 11.3 µM.

And the GI50 [20]?
The GI50 was 5.83 µM.

And the TGI [20]?
Its TGI is 11.2 µM.

What about the GI50 [21] of the same compound?
Its GI50 is 7.46 µM.

And the TGI [21]?
Its TGI is 18.9 µM.

What about the GI50 [22] of the same compound?
Its GI50 is 5.92 µM.

What about the TGI [22] of the same compound?
The TGI was 14 µM.

And the GI50 [23]?
The GI50 was 5.09 µM.

And the TGI [23]?
Its TGI is 12.3 µM.

And the GI50 [24]?
The GI50 was 5.88 µM.

What about the TGI [24] of the same compound?
The TGI was 11.5 µM.

And the GI50 [25]?
The GI50 was 5.13 µM.

What about the TGI [25] of the same compound?
Its TGI is 10.1 µM.

What about the GI50 [26] of the same compound?
The GI50 was 5.69 µM.

What about the TGI [26] of the same compound?
Its TGI is 10.8 µM.

What about the GI50 [27] of the same compound?
Its GI50 is 4.93 µM.

And the TGI [27]?
Its TGI is 9.87 µM.

What about the GI50 [28] of the same compound?
The GI50 was 6.6 µM.

What about the TGI [28] of the same compound?
Its TGI is 12.1 µM.

What about the GI50 [29] of the same compound?
The GI50 was 8.24 µM.

And the TGI [29]?
The TGI was 21.8 µM.

What about the GI50 [30] of the same compound?
Its GI50 is 5.31 µM.

What about the TGI [30] of the same compound?
Its TGI is 11 µM.

What about the GI50 [31] of the same compound?
The GI50 was 3.99 µM.

And the TGI [31]?
Its TGI is 8.53 µM.

And the GI50 [32]?
The GI50 was 5.18 µM.

What about the TGI [32] of the same compound?
Its TGI is 12.6 µM.

What about the GI50 [33] of the same compound?
Its GI50 is 6.38 µM.

And the TGI [33]?
Its TGI is 12.6 µM.

And the GI50 [34]?
The GI50 was 7.97 µM.

What about the TGI [34] of the same compound?
Its TGI is 25.2 µM.

What about the GI50 [35] of the same compound?
Its GI50 is 6.08 µM.

What about the TGI [35] of the same compound?
Its TGI is 11.9 µM.

And the GI50 [36]?
Its GI50 is 5.63 µM.

And the TGI [36]?
The TGI was 11.3 µM.

What about the GI50 [37] of the same compound?
Its GI50 is 6.21 µM.

And the TGI [37]?
Its TGI is 11.5 µM.

And the GI50 [38]?
Its GI50 is 6.1 µM.

And the TGI [38]?
The TGI was 11.8 µM.

And the GI50 [39]?
Its GI50 is 6.53 µM.

And the TGI [39]?
Its TGI is 12.3 µM.

What about the GI50 [40] of the same compound?
The GI50 was 6.88 µM.

What about the TGI [40] of the same compound?
The TGI was 14.1 µM.

And the GI50 [41]?
Its GI50 is 5.75 µM.

What about the TGI [41] of the same compound?
The TGI was 10.9 µM.

What about the GI50 [42] of the same compound?
Its GI50 is 5.83 µM.

What about the TGI [42] of the same compound?
The TGI was 11.3 µM.

And the GI50 [43]?
The GI50 was 6.63 µM.

And the TGI [43]?
Its TGI is 15.9 µM.

What about the GI50 [44] of the same compound?
The GI50 was 5.36 µM.

And the TGI [44]?
The TGI was 10.9 µM.

And the GI50 [45]?
Its GI50 is 5.21 µM.

And the TGI [45]?
The TGI was 10.4 µM.

What about the GI50 [46] of the same compound?
Its GI50 is 6.31 µM.

What about the TGI [46] of the same compound?
The TGI was 12.6 µM.

And the GI50 [47]?
The GI50 was 6.41 µM.

What about the TGI [47] of the same compound?
The TGI was 15.4 µM.

What about the GI50 [48] of the same compound?
The GI50 was 4.84 µM.

What about the TGI [48] of the same compound?
Its TGI is 10.2 µM.

And the GI50 [49]?
The GI50 was 5.87 µM.

And the TGI [49]?
The TGI was 12 µM.

What about the GI50 [50] of the same compound?
The GI50 was 5.14 µM.

And the TGI [50]?
Its TGI is 12.2 µM.

And the GI50 [51]?
Its GI50 is 6.85 µM.

What about the TGI [51] of the same compound?
Its TGI is 12.9 µM.

And the GI50 [52]?
The GI50 was 5.82 µM.

What about the TGI [52] of the same compound?
Its TGI is 11.7 µM.

And the GI50 [53]?
Its GI50 is 4.67 µM.

What about the TGI [53] of the same compound?
The TGI was 9.8 µM.

And the GI50 [54]?
The GI50 was 3.99 µM.

And the TGI [54]?
Its TGI is 13.4 µM.

And the GI50 [55]?
The GI50 was 5.68 µM.

What about the TGI [55] of the same compound?
The TGI was 11.3 µM.

And the GI50 [56]?
The GI50 was 5.67 µM.

What about the TGI [56] of the same compound?
The TGI was 10.8 µM.

And the GI50 [57]?
Its GI50 is 6.02 µM.

What about the TGI [57] of the same compound?
Its TGI is 11.4 µM.

And the GI50 [58]?
Its GI50 is 5.73 µM.

What about the TGI [58] of the same compound?
Its TGI is 12.5 µM.
